Activity calls are given as the source filed them. The calls are words filed in the database; no cut-off is given here.
Experiments:
LNCaP [1] = experiment: Antiproliferative activities against human LNCaP cells assessed as cell viability measured after 72 hrs by CCK8 assay; assay type: functional, cell-based
LNCaP C4-2B [2] = experiment: Antiproliferative activities against human LNCaP C4-2B cells assessed as cell viability measured after 72 hrs by CCK8 assay; assay type: functional, cell-based
LNCaP C4-2B [3] = experiment: Inhibition of colony formation in human LNCaP C4-2B cells measured after 14 days incubation by Crystal-violet staining based assay; assay type: functional, cell-based; conditions: dose 10-40 µM, time 14.0 day
LNCaP C4-2B [4] = experiment: Induction of cell cycle arrest in human LNCaP C4-2B cells assessed as accumulation cells at G2/M phase at 20 uM measured after 48 hrs incubation by flow cytometry (reference value: 10.85%); assay type: functional
LNCaP C4-2B [5] = experiment: Induction of cell cycle arrest in human LNCaP C4-2B cells assessed as accumulation cells at S phase at 20 uM measured after 48 hrs incubation by flow cytometry (reference value: 18.33%); assay type: functional
LNCaP C4-2B [6] = experiment: Inhibition of AR protein expression in human LNCaP C4-2B cells measured after 48 hrs by Western blot analysis; assay type: functional, cell-based; conditions: dose 12.5-50 µM
LNCaP C4-2B [7] = experiment: Induction of cell cycle arrest in human LNCaP C4-2B cells assessed as accumulation cells at G2/M phase at 40 uM measured after 48 hrs incubation by flow cytometry (reference value: 10.85%); assay type: functional
LNCaP C4-2B [8] = experiment: Induction of apoptosis in human LNCaP C4-2B cells assessed as apoptotic cells at 5 uM measured after 48 hrs of incubation by Annexin V-FITC staining based flow cytometry relative to control; assay type: functional
LNCaP C4-2B [9] = experiment: Induction of cell cycle arrest in human LNCaP C4-2B cells assessed as accumulation cells at S phase at 10 uM measured after 48 hrs incubation by flow cytometry (reference value: 18.33%); assay type: functional
LNCaP C4-2B [10] = experiment: Induction of apoptosis in human LNCaP C4-2B cells assessed as apoptotic cells at 20 uM measured after 48 hrs of incubation by Annexin V-FITC staining based flow cytometry relative to control; assay type: functional
LNCaP C4-2B [11] = experiment: Induction of cell cycle arrest in human LNCaP C4-2B cells assessed as accumulation cells at S phase at 40 uM measured after 48 hrs incubation by flow cytometry (reference value: 18.33%); assay type: functional
LNCaP C4-2B [12] = experiment: Induction of cell cycle arrest in human LNCaP C4-2B cells assessed as accumulation cells at S phase at 5 uM measured after 48 hrs incubation by flow cytometry (reference value: 18.33%); assay type: functional
LNCaP C4-2B [13] = experiment: Induction of cell cycle arrest in human LNCaP C4-2B cells assessed as accumulation cells at G0/G1 phase at 20 uM measured after 48 hrs incubation by flow cytometry (reference value: 70.82%); assay type: functional
LNCaP C4-2B [14] = experiment: Induction of apoptosis in human LNCaP C4-2B cells assessed as apoptotic cells at 10 uM measured after 48 hrs of incubation by Annexin V-FITC staining based flow cytometry relative to control; assay type: functional
LNCaP [15] = experiment: Inhibition of AR protein expression in human LNCaP cells measured after 48 hrs by Western blot analysis; assay type: functional, cell-based; conditions: dose 12.5-50 µM
LNCaP C4-2B [16] = experiment: Induction of cell cycle arrest in human LNCaP C4-2B cells assessed as accumulation cells at G2/M phase at 5 uM measured after 48 hrs incubation by flow cytometry (reference value: 10.85%); assay type: functional
LNCaP C4-2B [17] = experiment: Induction of cell cycle arrest in human LNCaP C4-2B cells assessed as accumulation cells at G2/M phase at 10 uM measured after 48 hrs incubation by flow cytometry (reference value: 10.85%); assay type: functional
LNCaP C4-2B [18] = experiment: Induction of cell cycle arrest in human LNCaP C4-2B cells assessed as accumulation cells at G0/G1 phase at 5 uM measured after 48 hrs incubation by flow cytometry (reference value: 70.82%); assay type: functional
LNCaP C4-2B [19] = experiment: Induction of cell cycle arrest in human LNCaP C4-2B cells assessed as accumulation cells at G0/G1 phase at 10 uM measured after 48 hrs incubation by flow cytometry (reference value: 70.82%); assay type: functional
LNCaP C4-2B [20] = experiment: Induction of apoptosis in human LNCaP C4-2B cells assessed as apoptotic cells at 40 uM measured after 48 hrs of incubation by Annexin V-FITC staining based flow cytometry relative to control; assay type: functional
LNCaP C4-2B [21] = experiment: Induction of cell cycle arrest in human LNCaP C4-2B cells assessed as accumulation cells at G0/G1 phase at 40 uM measured after 48 hrs incubation by flow cytometry (reference value: 70.82%); assay type: functional

`COC(=O)c1ccc(C(F)(F)F)cc1NC(=O)COc1cccc2ccccc12` was tested, and the Activity (LNCaP [1]) was “inactive”.
For `COC(=O)c1ccc(F)cc1NC(=O)COc1cccc2ccccc12`, the IC50 (LNCaP [1]) was 32 µM.
In the case of `COC(=O)c1ccc(C)cc1NC(=O)COc1cccc2ccccc12`, the Activity (LNCaP [1]) is reported as “inactive”.
Work on `COC(=O)c1ccc(Cl)cc1NC(=O)COc1cccc2ccccc12` yielded an IC50 (LNCaP C4-2B [2]) of 33.5 µM and an IC50 (LNCaP [1]) of 17.1 µM.
For `COC(=O)c1ccc(Cl)cc1NC(=O)COc1ccc(Br)c2ccccc12`, the IC50 (LNCaP C4-2B [2]) was > 50 µM, the IC50 (LNCaP [1]) was 13.3 µM and the inhibition (LNCaP C4-2B [3]) was “Dose-Dependent Effect”.
For `COC(=O)c1ccc(Cl)cc1NC(=O)COc1cccc2cnccc12`, the IC50 (LNCaP [1]) was 25.4 µM.
Work on `COC(=O)c1ccc(Cl)cc1NC(=O)COc1ccnc2ccccc12` yielded an IC50 (LNCaP [1]) of 32.5 µM.
Molecule `COC(=O)c1ccc(Cl)cc1NC(=O)COc1ccc(Cl)c2ccccc12` has an IC50 (LNCaP [1]) of 19.9 µM.
`COC(=O)c1ccc(OC)cc1NC(=O)COc1cccc2ccccc12` showed an IC50 (LNCaP [1]) of 19.6 µM.
For `COC(=O)c1cc(F)c(Cl)cc1NC(=O)COc1cccc2ccccc12`, the IC50 (LNCaP [1]) was 42.1 µM.
With `O=C(COc1cccc2ccccc12)Nc1cc(Cl)ccc1C(=O)O` the Activity (LNCaP C4-2B [2]) was “inactive” and the IC50 (LNCaP [1]) was > 50 µM.
With `COC(=O)c1ccc(Cl)cc1NC(=O)COc1ccc(OC)c2ccccc12` the Activity (LNCaP [1]) was “inactive”.
In the case of `COC(=O)c1ccc(I)cc1NC(=O)COc1cccc2ccccc12`, the Activity (LNCaP C4-2B [4]) is reported as 10.12%, the Activity (LNCaP C4-2B [5]) is reported as 12.61% and the inhibition (LNCaP C4-2B [6]) is reported as “Dose-Dependent Effect”. It also gave an Activity (LNCaP C4-2B [7]) of 8.84%, an Activity (LNCaP C4-2B [8]) of 34.5% and an Activity (LNCaP C4-2B [9]) of 17.53%. The IC50 (LNCaP C4-2B [2]) was 8.76 µM, the Activity (LNCaP C4-2B [10]) was 92.9% and the Activity (LNCaP C4-2B [11]) was 11.54%. The Activity (LNCaP C4-2B [12]) was 18.11%, the Activity (LNCaP C4-2B [13]) was 77.27% and the Activity (LNCaP C4-2B [14]) was 79%. For the same molecule, the inhibition (LNCaP [15]) was “Dose-Dependent Effect”, the IC50 (LNCaP [1]) was 12.3 µM and the Activity (LNCaP C4-2B [16]) was 11.05%. It also gave an Activity (LNCaP C4-2B [17]) of 11.44%, an Activity (LNCaP C4-2B [18]) of 70.84% and an Activity (LNCaP C4-2B [19]) of 71.03%. It also gave an Activity (LNCaP C4-2B [20]) of 96.6% and an Activity (LNCaP C4-2B [21]) of 79.62%.
`CNC(=O)c1ccc(Cl)cc1NC(=O)COc1cccc2ccccc12` showed an IC50 (LNCaP [1]) of 33.9 µM.
`COC(=O)c1ccc(Cl)cc1NC(=O)C(C)Oc1cccc2ccccc12` (stereo not given) was tested, and the IC50 (LNCaP [1]) was 19 µM.
With `COC(=O)c1ccc(Br)cc1NC(=O)COc1cccc2ccccc12` the IC50 (LNCaP [1]) was 48.5 µM.
`COC(=O)c1ccc(Cl)cc1NC(=O)COc1ccc(F)c2ccccc12` was tested, and the Activity (LNCaP [1]) was “inactive”.
